# What was measured:
# [1] = target: CDK3/CycE1 (Homo sapiens, UniProt Q00526); experiment: Kinase assay, ATP Km; type: biochemical
# [2] = target: T1, MST2 (Homo sapiens, UniProt Q13188); experiment: Kinase assay, ATP Km; type: biochemical
# T1 construct: purchased Carna Biosciences
# [3] = target: EPHA5 (Homo sapiens, UniProt P54756); experiment: Kinase assay, ATP Km; type: biochemical
# [4] = system: Ba/F3 TPM3-NTRK1 G667C cells; experiment: CellTiter-Glo cell viability assay; type: cell-based, murine; conditions: 72 h
# [5] = target: T2, HER4 (Homo sapiens, UniProt Q15303); experiment: Kinase assay, 1 mM ATP; type: biochemical
# T2 construct: purchased Carna Biosciences
# [6] = target: T3, PKCη (Homo sapiens, UniProt P24723); experiment: Kinase assay, ATP Km; type: biochemical
# T3 construct: purchased Carna Biosciences
# [7] = target: IRAK4 (Homo sapiens, UniProt Q9NWZ3); experiment: Kinase assay, ATP Km; type: biochemical
# [8] = target: T4, TXK (Homo sapiens, UniProt P42681); experiment: Kinase assay, ATP Km; type: biochemical
# T4 construct: purchased Carna Biosciences, Inc. (Kobe, Japan); assay run by the vendor
# T4 sequence (P42681 1-527): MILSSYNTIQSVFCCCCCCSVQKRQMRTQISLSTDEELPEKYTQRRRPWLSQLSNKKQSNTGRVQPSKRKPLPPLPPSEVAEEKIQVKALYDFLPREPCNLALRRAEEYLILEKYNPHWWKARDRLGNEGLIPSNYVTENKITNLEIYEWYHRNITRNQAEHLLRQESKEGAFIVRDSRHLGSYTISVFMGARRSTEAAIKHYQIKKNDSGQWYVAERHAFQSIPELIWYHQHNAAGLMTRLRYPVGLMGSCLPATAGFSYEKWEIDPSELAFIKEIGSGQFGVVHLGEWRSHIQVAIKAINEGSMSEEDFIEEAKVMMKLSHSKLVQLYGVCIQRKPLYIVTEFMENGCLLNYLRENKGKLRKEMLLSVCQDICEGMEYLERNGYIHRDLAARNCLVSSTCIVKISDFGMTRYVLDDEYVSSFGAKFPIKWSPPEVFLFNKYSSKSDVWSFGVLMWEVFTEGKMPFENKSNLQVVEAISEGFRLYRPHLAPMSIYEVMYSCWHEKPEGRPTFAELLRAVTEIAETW
# [9] = target: BUB1/BUB3 (Homo sapiens, UniProt O43683); experiment: Kinase assay, ATP Km; type: biochemical
# [10] = target: T5, JAK3 (Homo sapiens, UniProt P52333); experiment: Kinase assay, ATP Km; type: biochemical
# T5 construct: purchased Carna Biosciences
# [11] = target: T6, FLT4 (Homo sapiens, UniProt P35916); experiment: Kinase assay, 1 mM ATP; type: biochemical
# T6 construct: purchased Carna Biosciences
# T6 sequence (P35916 25-1363): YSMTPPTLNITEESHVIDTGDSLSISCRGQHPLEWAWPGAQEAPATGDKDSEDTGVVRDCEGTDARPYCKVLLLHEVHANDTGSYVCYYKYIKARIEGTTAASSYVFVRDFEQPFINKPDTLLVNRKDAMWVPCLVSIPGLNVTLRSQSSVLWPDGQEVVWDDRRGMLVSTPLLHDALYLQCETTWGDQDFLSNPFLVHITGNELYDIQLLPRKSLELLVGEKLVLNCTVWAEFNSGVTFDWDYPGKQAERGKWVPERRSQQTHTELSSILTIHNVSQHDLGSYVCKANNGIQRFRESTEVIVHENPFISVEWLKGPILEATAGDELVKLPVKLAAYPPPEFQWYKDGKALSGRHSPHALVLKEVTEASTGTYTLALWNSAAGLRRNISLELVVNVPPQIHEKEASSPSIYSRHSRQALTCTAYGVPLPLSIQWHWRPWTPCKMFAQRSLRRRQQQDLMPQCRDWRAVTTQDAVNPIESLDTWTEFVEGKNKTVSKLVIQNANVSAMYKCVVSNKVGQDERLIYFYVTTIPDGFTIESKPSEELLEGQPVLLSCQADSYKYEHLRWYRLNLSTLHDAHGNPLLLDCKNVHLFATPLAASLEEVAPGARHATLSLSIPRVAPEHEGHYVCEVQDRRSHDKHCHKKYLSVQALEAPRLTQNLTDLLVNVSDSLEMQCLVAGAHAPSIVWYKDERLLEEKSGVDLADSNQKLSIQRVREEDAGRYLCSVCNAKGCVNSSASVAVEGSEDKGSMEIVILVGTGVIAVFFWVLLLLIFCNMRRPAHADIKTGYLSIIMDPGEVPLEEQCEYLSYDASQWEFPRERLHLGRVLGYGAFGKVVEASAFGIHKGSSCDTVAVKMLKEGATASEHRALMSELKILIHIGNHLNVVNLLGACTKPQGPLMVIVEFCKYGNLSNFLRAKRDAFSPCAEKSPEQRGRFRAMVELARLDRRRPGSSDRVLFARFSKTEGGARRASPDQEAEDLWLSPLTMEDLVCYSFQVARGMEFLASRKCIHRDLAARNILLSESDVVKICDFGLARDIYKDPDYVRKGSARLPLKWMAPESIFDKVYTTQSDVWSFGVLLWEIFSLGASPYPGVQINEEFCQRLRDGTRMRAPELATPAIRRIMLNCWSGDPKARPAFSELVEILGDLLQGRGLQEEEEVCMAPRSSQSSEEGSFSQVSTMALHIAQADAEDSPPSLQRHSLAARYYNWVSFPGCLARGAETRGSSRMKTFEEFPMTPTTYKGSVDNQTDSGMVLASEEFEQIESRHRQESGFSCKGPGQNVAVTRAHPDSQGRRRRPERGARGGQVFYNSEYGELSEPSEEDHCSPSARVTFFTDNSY
# Protocol: (§1) An off-chip mobility shift assay was performed by Carna Biosciences, Inc. (Kobe, Japan), according to their product instructions. […] The IC50 values were estimated according to the four-parameter logistic model.
# [12] = target: BTK (Homo sapiens, UniProt Q06187); experiment: Kinase assay, 1 mM ATP; type: biochemical
# Protocol: as §1
# [13] = target: SYK (Homo sapiens, UniProt P43405); experiment: Kinase assay, 1 mM ATP; type: biochemical
# Protocol: as §1
# [14] = target: CaMK1α (Homo sapiens, UniProt Q14012); experiment: Kinase assay, 1 mM ATP; type: biochemical
# Protocol: as §1
# [15] = target: skMLCK (Homo sapiens, UniProt Q9H1R3); experiment: Kinase assay, 1 mM ATP; type: biochemical
# Protocol: as §1
# [16] = target: EPHB1 (Homo sapiens, UniProt P54762); experiment: Kinase assay, 1 mM ATP; type: biochemical
# Protocol: as §1
# [17] = target: T7, TYRO3 (Homo sapiens, UniProt Q06418); experiment: Kinase assay, 1 mM ATP; type: biochemical
# T7 construct: purchased Carna Biosciences
# Protocol: as §1
# [18] = target: CDC2/CycB1 (Homo sapiens, UniProt P06493); experiment: Kinase assay, 1 mM ATP; type: biochemical
# CDC2/CycB1, sequence (P06493 whole entry): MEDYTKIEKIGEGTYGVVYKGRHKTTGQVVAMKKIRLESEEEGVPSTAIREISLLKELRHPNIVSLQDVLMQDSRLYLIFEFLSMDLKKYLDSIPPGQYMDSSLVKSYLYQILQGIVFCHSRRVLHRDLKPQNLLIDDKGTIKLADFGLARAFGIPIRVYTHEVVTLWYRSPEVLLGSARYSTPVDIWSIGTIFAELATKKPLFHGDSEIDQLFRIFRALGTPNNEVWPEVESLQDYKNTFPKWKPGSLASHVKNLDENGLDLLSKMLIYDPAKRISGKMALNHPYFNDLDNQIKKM
# CDC2/CycB1, sequence (P14635 whole entry partner): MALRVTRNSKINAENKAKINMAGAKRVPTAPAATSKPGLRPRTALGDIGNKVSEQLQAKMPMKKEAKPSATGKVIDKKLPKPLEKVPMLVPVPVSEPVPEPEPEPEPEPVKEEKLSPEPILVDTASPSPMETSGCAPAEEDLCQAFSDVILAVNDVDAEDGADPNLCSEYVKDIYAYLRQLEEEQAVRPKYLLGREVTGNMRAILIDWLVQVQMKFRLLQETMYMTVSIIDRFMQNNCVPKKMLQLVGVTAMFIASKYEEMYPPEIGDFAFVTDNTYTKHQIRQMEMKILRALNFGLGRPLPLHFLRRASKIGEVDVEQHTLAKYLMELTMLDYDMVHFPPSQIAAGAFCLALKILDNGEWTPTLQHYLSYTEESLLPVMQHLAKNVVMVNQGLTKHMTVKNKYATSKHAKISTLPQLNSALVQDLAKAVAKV
# Protocol: as §1
# [19] = target: FGR (Homo sapiens, UniProt P09769); experiment: Kinase assay, 1 mM ATP; type: biochemical
# Protocol: as §1
# [20] = target: T8, PBK (Homo sapiens, UniProt Q96KB5); experiment: Kinase assay, 1 mM ATP; type: biochemical
# T8 construct: purchased Carna Biosciences
# T8 sequence (Q96KB5 whole entry): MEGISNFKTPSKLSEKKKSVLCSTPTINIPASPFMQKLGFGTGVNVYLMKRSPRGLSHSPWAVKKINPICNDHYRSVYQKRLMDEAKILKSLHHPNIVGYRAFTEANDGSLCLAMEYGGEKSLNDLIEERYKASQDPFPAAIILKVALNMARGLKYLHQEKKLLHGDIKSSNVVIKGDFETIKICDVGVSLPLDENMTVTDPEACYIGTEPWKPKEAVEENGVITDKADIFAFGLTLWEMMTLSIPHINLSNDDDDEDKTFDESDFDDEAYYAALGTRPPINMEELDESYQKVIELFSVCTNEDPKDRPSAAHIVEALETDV
# Protocol: as §1
# [21] = target: NEK2 (Homo sapiens, UniProt P51955); experiment: Kinase assay, 1 mM ATP; type: biochemical
# Protocol: as §1
# [22] = target: EPHB2 (Homo sapiens, UniProt P29323); experiment: Kinase assay, 1 mM ATP; type: biochemical
# EPHB2, sequence (P29323 19-1055): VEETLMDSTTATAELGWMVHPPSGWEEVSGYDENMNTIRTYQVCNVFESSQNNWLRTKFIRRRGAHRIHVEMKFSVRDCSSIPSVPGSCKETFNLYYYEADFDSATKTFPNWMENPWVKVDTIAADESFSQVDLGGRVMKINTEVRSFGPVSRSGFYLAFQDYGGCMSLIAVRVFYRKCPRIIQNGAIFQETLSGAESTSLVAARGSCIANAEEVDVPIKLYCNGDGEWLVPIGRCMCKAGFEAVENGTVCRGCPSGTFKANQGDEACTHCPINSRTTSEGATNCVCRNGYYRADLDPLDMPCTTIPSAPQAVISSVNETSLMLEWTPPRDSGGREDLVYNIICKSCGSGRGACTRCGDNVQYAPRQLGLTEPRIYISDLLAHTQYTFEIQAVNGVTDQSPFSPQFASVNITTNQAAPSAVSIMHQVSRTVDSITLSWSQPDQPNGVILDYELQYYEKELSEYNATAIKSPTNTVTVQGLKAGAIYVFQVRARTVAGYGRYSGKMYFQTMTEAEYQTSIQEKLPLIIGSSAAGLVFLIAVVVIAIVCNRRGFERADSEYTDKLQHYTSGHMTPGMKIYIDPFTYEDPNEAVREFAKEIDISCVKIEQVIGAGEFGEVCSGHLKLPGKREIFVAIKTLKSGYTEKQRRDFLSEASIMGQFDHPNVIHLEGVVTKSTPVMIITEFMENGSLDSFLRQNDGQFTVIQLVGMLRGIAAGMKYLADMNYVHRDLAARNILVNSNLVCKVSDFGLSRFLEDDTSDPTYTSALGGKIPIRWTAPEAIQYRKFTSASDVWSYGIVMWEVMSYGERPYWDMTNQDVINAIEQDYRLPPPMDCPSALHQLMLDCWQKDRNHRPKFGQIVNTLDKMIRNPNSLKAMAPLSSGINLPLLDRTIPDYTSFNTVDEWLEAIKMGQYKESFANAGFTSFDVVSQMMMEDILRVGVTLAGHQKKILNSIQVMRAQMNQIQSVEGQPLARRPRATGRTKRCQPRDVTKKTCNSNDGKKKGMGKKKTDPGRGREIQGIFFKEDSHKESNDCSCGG
# Protocol: as §1
# [23] = target: T9, PKCε (Homo sapiens, UniProt Q02156); experiment: Kinase assay, 1 mM ATP; type: biochemical
# T9 construct: purchased Carna Biosciences
# Protocol: as §1
# [24] = target: T10, MINK (Homo sapiens, UniProt Q8N4C8); experiment: Kinase assay, 1 mM ATP; type: biochemical
# T10 construct: purchased Carna Biosciences
# Protocol: as §1
# [25] = target: T11, EGFR(L858R) (Homo sapiens, UniProt P00533, L858R); experiment: Kinase assay, 1 mM ATP; type: biochemical
# T11 construct: purchased Carna Biosciences
# Protocol: as §1
# [26] = target: T12, EPHA4 (Homo sapiens, UniProt P54764); experiment: Kinase assay, 1 mM ATP; type: biochemical
# T12 construct: purchased Carna Biosciences
# Protocol: as §1
# [27] = target: T13, RET(S891A) (Homo sapiens, UniProt P07949, S891A); experiment: Kinase assay, 1 mM ATP; type: biochemical
# T13 construct: purchased Carna Biosciences
# Protocol: as §1
# [28] = target: CSK (Homo sapiens, UniProt P41240); experiment: Kinase assay, 1 mM ATP; type: biochemical
# CSK, sequence (P41240 whole entry): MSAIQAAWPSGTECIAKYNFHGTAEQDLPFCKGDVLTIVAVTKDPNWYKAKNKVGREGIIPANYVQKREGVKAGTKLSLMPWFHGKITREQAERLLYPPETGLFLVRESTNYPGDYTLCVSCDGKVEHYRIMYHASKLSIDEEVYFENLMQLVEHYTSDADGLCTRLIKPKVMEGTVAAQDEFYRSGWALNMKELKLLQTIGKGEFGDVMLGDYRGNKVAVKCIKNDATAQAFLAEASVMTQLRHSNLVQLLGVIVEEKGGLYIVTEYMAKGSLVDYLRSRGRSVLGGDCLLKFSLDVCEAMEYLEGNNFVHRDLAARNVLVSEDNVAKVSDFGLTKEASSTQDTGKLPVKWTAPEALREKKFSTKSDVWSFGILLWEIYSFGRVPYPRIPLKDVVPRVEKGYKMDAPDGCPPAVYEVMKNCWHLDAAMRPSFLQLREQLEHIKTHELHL
# Protocol: as §1
# [29] = target: CDK9/CycT1 (Homo sapiens, UniProt P50750); experiment: Kinase assay, 1 mM ATP; type: biochemical
# Protocol: as §1
# [30] = target: T14, TNIK (Homo sapiens, UniProt Q9UKE5); experiment: Kinase assay, 1 mM ATP; type: biochemical
# T14 construct: purchased Carna Biosciences
# Protocol: as §1
# [31] = target: T15, RSK1 (Homo sapiens, UniProt Q15418); experiment: Kinase assay, 1 mM ATP; type: biochemical
# T15 construct: purchased Carna Biosciences
# Protocol: as §1
# [32] = target: LYNa (Homo sapiens, UniProt P07948); experiment: Kinase assay, 1 mM ATP; type: biochemical
# Protocol: as §1
# [33] = target: TYK2 (Homo sapiens, UniProt P29597); experiment: Kinase assay, 1 mM ATP; type: biochemical
# Protocol: as §1
# [34] = target: EGFR (Homo sapiens, UniProt P00533); experiment: Kinase assay, ATP Km; type: biochemical
# [35] = target: CaMK2β (Homo sapiens, UniProt Q13554); experiment: Kinase assay, ATP Km; type: biochemical
# EPHA5, sequence (P54756 25-1037): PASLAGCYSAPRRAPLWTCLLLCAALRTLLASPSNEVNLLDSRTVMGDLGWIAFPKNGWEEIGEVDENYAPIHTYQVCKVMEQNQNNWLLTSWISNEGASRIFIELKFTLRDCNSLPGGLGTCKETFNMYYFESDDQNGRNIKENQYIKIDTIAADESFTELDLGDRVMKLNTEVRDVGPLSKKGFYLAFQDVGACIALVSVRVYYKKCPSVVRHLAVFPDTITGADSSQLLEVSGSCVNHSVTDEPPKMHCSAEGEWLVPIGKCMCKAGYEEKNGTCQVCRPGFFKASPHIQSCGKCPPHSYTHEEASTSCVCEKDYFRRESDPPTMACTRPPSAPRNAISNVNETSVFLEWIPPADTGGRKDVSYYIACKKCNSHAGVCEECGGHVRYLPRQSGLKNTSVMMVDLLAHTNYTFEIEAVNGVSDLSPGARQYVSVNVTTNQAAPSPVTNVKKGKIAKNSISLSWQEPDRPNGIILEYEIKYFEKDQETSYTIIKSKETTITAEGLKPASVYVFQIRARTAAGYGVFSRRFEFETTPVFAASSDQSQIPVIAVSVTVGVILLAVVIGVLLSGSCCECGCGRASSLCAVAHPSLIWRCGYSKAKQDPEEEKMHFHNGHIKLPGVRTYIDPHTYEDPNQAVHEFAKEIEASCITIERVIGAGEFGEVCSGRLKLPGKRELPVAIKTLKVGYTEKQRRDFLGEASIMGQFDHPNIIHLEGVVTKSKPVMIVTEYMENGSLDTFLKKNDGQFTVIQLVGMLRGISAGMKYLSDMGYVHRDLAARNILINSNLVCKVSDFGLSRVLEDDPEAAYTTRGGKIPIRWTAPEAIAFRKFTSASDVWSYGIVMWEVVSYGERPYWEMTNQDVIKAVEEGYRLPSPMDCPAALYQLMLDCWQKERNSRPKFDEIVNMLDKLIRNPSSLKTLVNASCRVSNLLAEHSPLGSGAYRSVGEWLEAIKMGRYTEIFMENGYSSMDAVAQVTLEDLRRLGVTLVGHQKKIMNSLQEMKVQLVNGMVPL
smiles,measurement,setting,value
C[C@@H](N)COc1ccc(-c2cnc3ccc(N[C@H](C)c4cccc(F)c4)nn23)cc1.O=C(O)CCCCC(=O)O [DS-6051b],inhibition at 0.04 µM,[1],2.1%
same,inhibition at 0.04 µM,[2],42.3%
same,inhibition at 0.04 µM,[3],42.3%
same,IC50,[4],resistant
same,inhibition at 0.2 µM,[5],28.5%
same,inhibition at 0.04 µM,[6],22.2%
same,inhibition at 0.04 µM,[7],14.8%
same,inhibition at 0.04 µM,[8],88.9%
same,inhibition at 0.04 µM,[9],-1.8%
same,inhibition at 0.04 µM,[10],74.4%
same,inhibition at 0.2 µM,[11],-4.4%
same,inhibition at 0.2 µM,[12],17.9%
same,inhibition at 0.2 µM,[13],-2.5%
same,inhibition at 0.2 µM,[14],-8.6%
same,inhibition at 0.2 µM,[15],-7.1%
same,inhibition at 0.2 µM,[16],-3.5%
same,inhibition at 0.2 µM,[17],-1.2%
same,inhibition at 0.2 µM,[18],-6.7%
same,inhibition at 0.2 µM,[19],6.3%
same,inhibition at 0.2 µM,[20],-0.645%
same,inhibition at 0.2 µM,[21],-0.8%
same,inhibition at 0.2 µM,[22],-1.7%
same,inhibition at 0.2 µM,[23],18.8%
same,inhibition at 0.2 µM,[24],-2.2%
same,inhibition at 0.2 µM,[25],0.7%
same,inhibition at 0.2 µM,[26],-3.4%
same,inhibition at 0.2 µM,[27],2.5%
same,inhibition at 0.2 µM,[28],1%
same,inhibition at 0.2 µM,[29],-2.9%
same,inhibition at 0.2 µM,[30],-3%
same,inhibition at 0.2 µM,[31],2.1%
same,inhibition at 0.2 µM,[32],3.1%
same,inhibition at 0.2 µM,[33],8.3%
same,inhibition at 0.04 µM,[34],30.3%
same,inhibition at 0.04 µM,[35],1.7%

# From paper PMC6688997 (Nature Communications, 2019)
